The target of this assay is MAPKAP-K2 (Homo sapiens, UniProt P49137). In words: MAPKAP-K2 enzyme activity inhibition assay, Method B (33P-ATP, MultiScreen-PH plate). The settings on record: recombinant human MAPKAP-K2, 0.5% DMSO, 30 min room temperature, read-out: Inhibitory activity (MAPKAP-K2 IC50 class). It counts as biochemical. How it is done:
The assay of inhibitory activity was performed according to Method A described below for Compound No. 1, 2, 3, 4, 20, 21, 22, 23, 24, 25, 26, 79, 80 and 81, and Method B described below for the other compounds.
A compound was dissolved in […] to make its concentration to 20 mmol/L, and the resultant solution was stored at −20° C. The stock solution was sequentially diluted with DMSO to prepare a solution having a 200-fold concentration of the required range. Further the solution was diluted with water to 1:20 to prepare a solution having a 10-fold concentration of the required range, and an aliquot of 5 μL of each solution was used for every reaction with 50 μL. During the continuous dilution of all compounds, the final DMSO concentration was maintained at 0.5%. Compounds were routinely tested at a final concentration ranging from 100 μmol/L to 0.03 μmol/L, but were sometimes tested at a lower concentration depending upon their activity.
The reaction was initiated by adding 25 μL of a peptide substrate solution [60 μmol/L substrate peptide, 20 μmol/L ATP, 50 mmol/L Tris buffer (pH 7.5), 0.1 mmol/L EGTA, 0.1% β-mercaptoetanol, 20 mmol/L magnesium acetate, and 0.1 μCi [γ-33P]ATP (specific radio activity: approximately 110 TBq/mmol)] to 5 μL of a 5% DMSO solution of the test compound and subsequently adding 20 μL of a MAPKAP-K2 enzyme solution [10 mU recombinant human MAPKAP-K2, 50 mmol/L Tris buffer (pH 7.5), 0.1 mmol/L EGTA, 0.1% β-mercaptoethanol, 0.1% BSA]. After performing the reaction for 30 min at room temperature, an equivalent volume of 200 mmol/L phosphoric acid solution was added to terminate the reaction. Subsequently, 90 μL of the reaction product was adsorbed on a MultiScreen-PH Plate (Millipore) and then rinsed with 100 mmol/L phosphoric acid solution. After drying the plate, 30 μL of MicroScint-O (Packard BioScience) was added, and further the count per minute was measured by a scintillation counter to determine the inhibitory activity. The substrate peptide was Lys-Lys-Leu-Asn-Arg-Tlr-Leu-Ser-Val-Ala.
• % Control=(X−B)/(Tot−B)×100 • % Inhibition=100—% Control • X=count per minute of a test compound well • B=count per minute of a well without containing enzyme • Tot=count per minute of a well with DMSO solvent only, without containing the test compound (MAPKAP-K2 inhibitory activity) • IC50 value=the compound concentration at 50% inhibition

Bounds are passed on as bounds.

One may read the IC50 as the point on the concentration scale where inhibition reaches its midpoint.

Sequence of MAPKAP-K2 (P49137 whole entry): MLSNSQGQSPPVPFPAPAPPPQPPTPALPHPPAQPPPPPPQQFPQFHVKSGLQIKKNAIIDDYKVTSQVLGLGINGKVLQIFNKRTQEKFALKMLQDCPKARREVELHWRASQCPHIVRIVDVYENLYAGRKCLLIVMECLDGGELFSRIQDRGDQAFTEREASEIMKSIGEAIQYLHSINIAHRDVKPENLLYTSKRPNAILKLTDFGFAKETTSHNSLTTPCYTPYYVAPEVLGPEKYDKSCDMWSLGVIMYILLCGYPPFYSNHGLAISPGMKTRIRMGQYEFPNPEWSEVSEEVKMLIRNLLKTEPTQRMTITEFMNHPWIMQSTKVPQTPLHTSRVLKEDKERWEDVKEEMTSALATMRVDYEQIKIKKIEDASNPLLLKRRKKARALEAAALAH

With `CCC[C@@H]1CCNC[C@H]1Oc1nc2ccnn2c(Nc2ccc(OCC)cc2)c1C` (racemic) [Compound No. 16, (dl)-(4-ethoxyphenyl)-[6-methyl-5-(trans-4-propylpiperidin-3-yloxy)pyrazolo[1,5-a]pyrimidin-7-yl]amine], the IC50 fell in the range of 2 to 20 µM.
`CCOc1ccc(Nc2c(C)c(O[C@@H]3CNCC[C@H]3CC(N)=O)nc3ccnn23)cc1` (racemic) [Compound No. 82, (dl)-trans-2-{3-[7-(4-ethoxyphenyamino)-6-methylpyrazolo[1,5-a]pyrimidin-5-yloxyl-p]peridin-4-yl}acetamide]: the IC50 lay within 2 to 20 µM.
Regarding `CCOc1ccc(Nc2c(C)c(OC3CCCNC3)nc3ccnn23)cc1` (stereo not drawn) [Compound No. 5, (dl)-(4-ethoxyphenyl)-[6-methyl-5-(pyperdin-3-yloxy)pyrazolo [1,5-a]pyrimidin-7-yl]-amine], the IC50 lay in the range of 2 to 20 µM.
With `CCOc1ccc(Nc2c(CCCO)c(O[C@H]3CC[C@H](N)CC3)nc3ccnn23)cc1` [Compound No. 88, 3-[5-(trans-4-aminocyclohexyloxy)-7-(4-ethoxyphenylamino)-pyrazolo [1,5-a]pyrimidin-6-yl]propan-1-ol], the IC50 was at most 2 µM.
For `Cc1c(O[C@H]2CC[C@H](N)CC2)nc2ccnn2c1Nc1ccc(OCCOCc2ccccc2)cc1` [Compound No. 91, [5-(trans-4-aminocyclohexyloxy)-6-methylpyrazolo[1,5-a]pyrimidin-7-yl]-[4-(2-benzyloxyethoxy)phenyl]-amine] the value was at most 2 µM.
To `Cc1c(O[C@H]2CC[C@H](N)CC2)nc2ccnn2c1Nc1ccc(-c2cccc(N)c2)cc1` [Compound No. 93, N-4′-[5-(trans-4-aminocyclohexyloxy)-6-methylpyrazolo[1,5-a]pyrimidin-7-yl] biphenyl-3,4′-diamine] belongs at most 2 µM; to `CCc1c(O[C@H]2CC[C@@H](N)CC2)nc2ccnn2c1Nc1ccccc1F` [compound 9], 2 to 20 µM; to `CCc1c(O[C@H]2CC[C@@H](N)CC2)nc2ccnn2c1Nc1ccc(F)c(Cl)c1` [compound 10], 2 to 20 µM.
Turning to `C=CCc1c(O[C@H]2CC[C@@H](N)CC2)nc2ccnn2c1Nc1ccc(F)c(Cl)c1` [compound 12], the IC50 was in the range of 2 to 20 µM.
Turning to `CCOc1ccc(Nc2c(C)c(O[C@@H]3CC[C@@H](C)NC3)nc3ccnn23)cc1` [compound 17], the IC50 fell in the range of 2 to 20 µM.
Consider `CCOc1ccc(Nc2c(C)c(O[C@@H]3CC[C@H](C)NC3)nc3ccnn23)cc1` [compound 18], for which the IC50 fell in the range of 20 to 100 µM.
For `N[C@H]1CC[C@@H](Oc2cc(Nc3ccc(F)c(Cl)c3)n3ncc(I)c3n2)CC1` [compound 19] the value was 20 to 100 µM; for `CCOc1ccc(Nc2c(C)c(O[C@@H]3CNCC[C@H]3CCO)nc3ccnn23)cc1` [compound 27], at most 2 µM; for `CCOc1ccc(Nc2c(C)c(OCCN)nc3ccnn23)cc1` [compound 28], 20 to 100 µM.
Turning to `CCOc1ccc(Nc2c(C)c(OCCCN)nc3ccnn23)cc1` [compound 29], the half-inhibitory concentration (IC50) is 20 to 100 µM.
To `CCOc1ccc(Nc2c(C)c(OCCCCN)nc3ccnn23)cc1` [compound 30] belongs 2 to 20 µM; to `CCOc1ccc(Nc2c(C)c(OC(CN)c3ccccc3)nc3ccnn23)cc1` (centres unmarked) [compound 31], 20 to 100 µM; to `CCOc1ccc(Nc2c(C)c(OCC(C)N)nc3ccnn23)cc1` (centres unmarked) [compound 33], 20 to 100 µM.
`CCOc1ccc(Nc2c(C)c(OCC(N)CC)nc3ccnn23)cc1` (centres unmarked) [compound 36]: the IC50 was in the range of 20 to 100 µM.
On to `CCOc1ccc(Nc2c(C)c(OCC3(N)CCCC3)nc3ccnn23)cc1` [compound 40], for which the IC50 is 20 to 100 µM.
For `CCOc1ccc(Nc2c(C)c(O[C@H]3CNCC[C@@H]3CCO)nc3ccnn23)cc1` [compound 41] the value was at most 2 µM.
To `CCOc1ccc(Nc2c(C)c(OC(CN)CN)nc3ccnn23)cc1` [compound 42] belongs 20 to 100 µM.
On to `CCOc1ccc(Nc2c(C)c(OCC(N)(CO)CO)nc3ccnn23)cc1` [compound 43], for which the IC50 was in the range of 20 to 100 µM.
To `CCOc1ccc(Nc2c(C)c(OC3CC(C)(C)CC(C)(CN)C3)nc3ccnn23)cc1` (centres unmarked) [compound 44] belongs 20 to 100 µM.
Take `CSc1nc2ccc(Nc3c(C)c(OC4CCCNC4)nc4ccnn34)cc2s1` (centres unmarked) [compound 45]: the IC50 is at most 2 µM.
For `CSc1nc2ccc(Nc3c(C)c(O[C@H]4CC[C@@H](N)CC4)nc4ccnn34)cc2s1` [compound 46] the value was at most 2 µM.
Consider `COC(=O)c1ccc(Nc2c(C)c(OC3CCCNC3)nc3ccnn23)cc1` (centres unmarked) [compound 47], for which the IC50 was 2 to 20 µM.
As to `Cc1c(OC2CCCNC2)nc2ccnn2c1Nc1cccc(NS(C)(=O)=O)c1` (centres unmarked) [compound 48], the IC50 fell in the range of 2 to 20 µM.
On to `Cc1c(OC2CCCNC2)nc2ccnn2c1Nc1cc(OC2CCCNC2)c(C#N)cc1F` (centres unmarked) [compound 49], for which the IC50 lay within 20 to 100 µM.
`COc1cc(Nc2c(C)c(OC3CCCNC3)nc3ccnn23)cc(OC)c1` (centres unmarked) [compound 50]: the IC50 lay in the range of 20 to 100 µM.
Take `Cc1c(OC2CCCNC2)nc2ccnn2c1Nc1ccc(C(=O)c2ccccc2)cc1` (centres unmarked) [compound 51]: the IC50 lay in the range of 2 to 20 µM.
On to `Cc1c(OC2CCCNC2)nc2ccnn2c1Nc1ccc(Cc2ccccc2)cc1` (centres unmarked) [compound 52], for which the half-maximal inhibitory concentration (IC50) was in the range of 2 to 20 µM.
Turning to `Cc1c(OC2CCCNC2)nc2ccnn2c1Nc1ccc(C#N)c(C(F)(F)F)c1` (centres unmarked) [compound 53], the IC50 lay in the range of 20 to 100 µM.
Turning to `Cc1c(OC2CCCNC2)nc2ccnn2c1Nc1ccc(SC(F)(F)F)cc1` (centres unmarked) [compound 54], the IC50 was 2 to 20 µM.
`COc1ccc(Cl)cc1Nc1c(C)c(OC2CCCNC2)nc2ccnn12` (centres unmarked) [compound 55]: the IC50 was 20 to 100 µM.
In the case of `CCn1c2ccccc2c2cc(Nc3c(C)c(OC4CCCNC4)nc4ccnn34)ccc21` (centres unmarked) [compound 56], the IC50 lay within 2 to 20 µM.
To `Cc1c(OC2CCCNC2)nc2ccnn2c1Nc1ccc(OC(F)(F)F)c(Cl)c1` (centres unmarked) [compound 57] belongs 2 to 20 µM; to `CCOc1ccc(Nc2c(C)c(OC3CNCCC3CO)nc3ccnn23)cc1` (centres unmarked) [compound 58], 2 to 20 µM.
Consider `COc1ccc(Nc2ccc(Nc3c(C)c(OC4CCCNC4)nc4ccnn34)cc2)cc1` (centres unmarked) [compound 59], for which the IC50 was at most 2 µM.
As for `Cc1ccc2nc(-c3ccc(Nc4c(C)c(OC5CCCNC5)nc5ccnn45)cc3)sc2c1` (centres unmarked) [compound 60], the IC50 was at most 2 µM.
Take `Cc1c(OC2CCCNC2)nc2ccnn2c1Nc1ccc(S(=O)(=O)N2CCOCC2)cc1` (centres unmarked) [compound 61]: the IC50 is 2 to 20 µM.
In the case of `CC(=O)c1ccc(Nc2c(C)c(OC3CCCNC3)nc3ccnn23)cc1` (centres unmarked) [compound 62], the IC50 lay within 2 to 20 µM.
To `Cc1c(OC2CCCNC2)nc2ccnn2c1Nc1cccc2cnccc12` (centres unmarked) [compound 63] belongs 20 to 100 µM.
On to `COc1ccc(Cl)cc1Nc1c(C)c(O[C@H]2CC[C@@H](N)CC2)nc2ccnn12` [compound 64], for which the IC50 was 2 to 20 µM.
For `CCn1c2ccccc2c2cc(Nc3c(C)c(O[C@H]4CC[C@@H](N)CC4)nc4ccnn34)ccc21` [compound 65], the IC50 was at most 2 µM.
As for `COc1ccc(Nc2ccc(Nc3c(C)c(O[C@H]4CC[C@@H](N)CC4)nc4ccnn34)cc2)cc1` [compound 66], the IC50 was at most 2 µM.
`COC(=O)c1ccc(Nc2c(C)c(O[C@H]3CC[C@@H](N)CC3)nc3ccnn23)cc1` [compound 67]: the IC50 was 20 to 100 µM.
With `Cc1c(O[C@H]2CC[C@@H](N)CC2)nc2ccnn2c1Nc1cc(F)c(C#N)cc1F` [compound 68], the IC50 lay within 2 to 20 µM.
Take `Cc1c(O[C@H]2CC[C@@H](N)CC2)nc2ccnn2c1Nc1ccc(C(=O)c2ccccc2)cc1` [compound 70]: the IC50 is at most 2 µM.
For `Cc1c(O[C@H]2CC[C@@H](N)CC2)nc2ccnn2c1Nc1ccc(C#N)c(C(F)(F)F)c1` [compound 72], the 50% inhibitory concentration (IC50) is at most 2 µM.
To `Cc1c(O[C@H]2CC[C@@H](N)CC2)nc2ccnn2c1Nc1ccc(SC(F)(F)F)cc1` [compound 73] belongs at most 2 µM.
As for `Cc1c(OC2CCCNC2)nc2ccnn2c1Nc1ccc2nc(SC(C)C)sc2c1` (centres unmarked) [compound 74], the IC50 was in the range of 2 to 20 µM.
For `Cc1c(O[C@H]2CC[C@@H](N)CC2)nc2ccnn2c1Nc1ccc2nc(SC(C)C)sc2c1` [compound 75] the value was at most 2 µM; for `Cc1c(O[C@H]2CC[C@@H](N)CC2)nc2ccnn2c1Nc1ccc(OCc2ccccc2)cc1` [compound 76], at most 2 µM; for `Cc1c(O[C@H]2CC[C@@H](N)CC2)nc2ccnn2c1Nc1ccc(I)cc1` [compound 77], at most 2 µM.
Take `Cc1c(O[C@H]2CC[C@@H](N)CC2)nc2ccnn2c1Nc1ccc(O)cc1` [compound 78]: the IC50 was at most 2 µM.
